From patent US10947252B2, “Inhibitors of KEAP1-Nrf2 protein-protein interaction” (Janssen Pharmaceutica NV, priority 2018, dated 2021)

Key:
[1] = tested on: Glo-Response ARE-luc2P HEK293 cell line; assay: ARE luciferase reporter cell-based assay; conditions: Homo sapiens, HEK293, 24 h, average of results obtained;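 further: luciferase signal tracks Nrf2 activation of the ARE once compounds disrupt KEAP1-Nrf2 binding, read with One-Glo reagent, DMSO serving as low control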
[2] = biological target: Kelch domain of human KEAP1 (321-624 aa) (Homo sapiens (Human), UniProt Q14145); assay: KEAP1 KELCH ThermoFluor binding assay; conditions: KEAP Kelch […], 1,8-ANS, pH 7.0, average of results obtained, read-out: Tf Kd;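 further: Ligand-induced melting temperature shift of E. coli-expressed KEAP1 Kelch protein, Kd estimated from concentration-response curves of ΔTm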
Sequence of Kelch domain of human KEAP1 (321-624 aa) (Q14145 321-624): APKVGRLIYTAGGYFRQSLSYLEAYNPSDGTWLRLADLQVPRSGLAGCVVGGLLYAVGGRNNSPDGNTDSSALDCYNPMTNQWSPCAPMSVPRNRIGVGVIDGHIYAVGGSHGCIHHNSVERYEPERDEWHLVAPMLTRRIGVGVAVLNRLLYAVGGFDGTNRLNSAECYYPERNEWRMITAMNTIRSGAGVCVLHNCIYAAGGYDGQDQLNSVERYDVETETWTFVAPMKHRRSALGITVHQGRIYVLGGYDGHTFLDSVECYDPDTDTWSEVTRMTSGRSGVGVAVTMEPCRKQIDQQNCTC

Structure (SMILES)	Kd [2]	EC50 [1]
Cc1cnc2c(c1)S(=O)(=O)N(Cc1nc([C@H](c3ccn4c(C(F)(F)F)nnc4c3C)C(C)(C)C(=O)O)ccc1C)CC1(CNC1)O2 (single isomer, unassigned) [Example 629, (*R)-2,2-Dimethyl-3-(8-methyl-3-(trifluoromethyl)-[1,2,4]triazolo[4,3-a]pyridin-7-yl)-3-(5-methyl-6-((8′-methyl-1′,1′-dioxidospiro[azetidine-3,4′-pyrido[2,3-b][1,4,5]oxathiazepin]-2′(3′H)-yl)methyl)pyridin-2-yl)propanoic Acid]	131000 nM	> 20000 nM
Cc1cnc2c(c1)S(=O)(=O)N(Cc1nc([C@@H](c3ccn4c(C(F)(F)F)nnc4c3C)C(C)(C)C(=O)O)ccc1C)CC1(CNC1)O2 (single isomer, unassigned) [Example 630, (*S)-2,2-Dimethyl-3-(8-methyl-3-(trifluoromethyl)-[1,2,4]triazolo[4,3-a]pyridin-7-yl)-3-(5-methyl-6-((8′-methyl-1′,1′-dioxidospiro[azetidine-3,4′-pyrido[2,3-b][1,4,5]oxathiazepin]-2′(3′H)-yl)methyl)pyridin-2-yl)propanoic Acid]	3.81 nM	81.8 nM
Cc1cnc2c(c1)S(=O)(=O)N(Cc1nc([C@H](c3ccn4c(C(F)F)nnc4c3C)C(C)(C)C(=O)O)ccc1C)CC1(CNC1)O2 (single isomer, unassigned) [Example 631, (*R)-3-(3-(Difluoromethyl)-8-methyl-[1,2,4]triazolo[4,3-a]pyridin-7-yl)-2,2-dimethyl-3-(5-methyl-6-((8′-methyl-1′,1′-dioxidospiro[azetidine-3,4′-pyrido[2,3-b][1,4,5]oxathiazepin]-2′(3′H)-yl)methyl)pyridin-2-yl)propanoic Acid]	1.08 nM	76.8 nM
Cc1cnc2c(c1)S(=O)(=O)N(Cc1nc([C@@H](c3ccn4c(C(F)F)nnc4c3C)C(C)(C)C(=O)O)ccc1C)CC1(CNC1)O2 (single isomer, unassigned) [Example 632, (*S)-3-(3-(Difluoromethyl)-8-methyl-[1,2,4]triazolo[4,3-a]pyridin-7-yl)-2,2-dimethyl-3-(5-methyl-6-((8′-methyl-1′,1′-dioxidospiro[azetidine-3,4′-pyrido[2,3-b][1,4,5]oxathiazepin]-2′(3′H)-yl)methyl)pyridin-2-yl)propanoic Acid]	21200 nM	18100 nM
Cc1ccc([C@H](c2ccn3c(C(F)(F)F)nnc3c2C)C(C)(C)C(=O)O)nc1CN1CC2(CC2)Oc2nc(OCCN3CCCC3)c(C)cc2S1(=O)=O (single isomer, unassigned) [Example 633, (*R)-2,2-Dimethyl-3-(8-methyl-3-(trifluoromethyl)-[1,2,4]triazolo[4,3-a]pyridin-7-yl)-3-(5-methyl-6-((8′-methyl-1′,1′-dioxido-7′-(2-(pyrrolidin-1-yl)ethoxy)spiro[cyclopropane-1,4′-pyrido[2,3-b][1,4,5]oxathiazepin]-2′(3′H)-yl)methyl)pyridin-2-yl)propanoic Acid]	2260 nM	1750 nM
Cc1cnc([C@H](c2ccn3c(C(F)F)nnc3c2C)C(C)(C)C(=O)O)cc1CN1CC2(CC2)Oc2nc(OCCN3CCCC3)c(C)cc2S1(=O)=O (single isomer, unassigned) [Example 635, (*R)-3-(3-(Difluoromethyl)-8-methyl-[1,2,4]triazolo[4,3-a]pyridin-7-yl)-2,2-dimethyl-3-(5-methyl-4-((8′-methyl-1′,1′-dioxido-7′-(2-(pyrrolidin-1-yl)ethoxy)spiro[cyclopropane-1,4′-pyrido[2,3-b][1,4,5]oxathiazepin]-2′(3′H)-yl)methyl)pyridin-2-yl)propanoic Acid]	1190 nM	3590 nM
Cc1cnc([C@H](c2ccn3c(C(F)F)nnc3c2C)C(C)(C)C(=O)O)cc1CN1CC2(CCOCC2)Oc2nc(OCCN3CCCC3)c(C)cc2S1(=O)=O (single isomer, unassigned) [Example 639, (*R)-3-(3-(Difluoromethyl)-8-methyl-[1,2,4]triazolo[4,3-a]pyridin-7-yl)-2,2-dimethyl-3-(5-methyl-4-((8′-methyl-1′,1′-dioxido-7′-(2-(pyrrolidin-1-yl)ethoxy)-2,3,5,6-tetrahydrospiro[pyran-4,4′-pyrido[2,3-b][1,4,5]oxathiazepin]-2′(3′H)-yl)methyl)pyridin-2-yl)propanoic Acid]	1820 nM	5170 nM
Cc1ccc([C@H](c2ccn3c(C(F)F)nnc3c2C)C(C)(C)C(=O)O)nc1CN1CC2(CCOCC2)Oc2nc(OCCN3CCCC3)c(C)cc2S1(=O)=O (single isomer, unassigned) [Example 643, (*R)-3-(3-(Difluoromethyl)-8-methyl-[1,2,4]triazolo[4,3-a]pyridin-7-yl)-2,2-dimethyl-3-(5-methyl-6-((8′-methyl-1′,1′-dioxido-7′-(2-(pyrrolidin-1-yl)ethoxy)-2,3,5,6-tetrahydrospiro[pyran-4,4′-pyrido[2,3-b][1,4,5]oxathiazepin]-2′(3′H)-yl)methyl)pyridin-2-yl)propanoic Acid]	2420 nM	9780 nM

The next molecules have a lower Kd [2] than those just listed; values first:

Kd [2]	Structure (SMILES)	EC50 [1]
< 1 nM	Cc1ccc([C@@H](c2ccn3c(C(F)(F)F)nnc3c2C)C(C)(C)C(=O)O)nc1CN1CC2(CC2)Oc2nc(OCCN3CCCC3)c(C)cc2S1(=O)=O (single isomer, unassigned) [Example 634, (*S)-2,2-Dimethyl-3-(8-methyl-3-(trifluoromethyl)-[1,2,4]triazolo[4,3-a]pyridin-7-yl)-3-(5-methyl-6-((8′-methyl-1′,1′-dioxido-7′-(2-(pyrrolidin-1-yl)ethoxy)spiro[cyclopropane-1,4′-pyrido[2,3-b][1,4,5]oxathiazepin]-2′(3′H)-yl)methyl)pyridin-2-yl)propanoic Acid]	9.53 nM
< 1 nM	Cc1cnc([C@@H](c2ccn3c(C(F)F)nnc3c2C)C(C)(C)C(=O)O)cc1CN1CC2(CC2)Oc2nc(OCCN3CCCC3)c(C)cc2S1(=O)=O (single isomer, unassigned) [Example 636, (*S)-3-(3-(Difluoromethyl)-8-methyl-[1,2,4]triazolo[4,3-a]pyridin-7-yl)-2,2-dimethyl-3-(5-methyl-4-((8′-methyl-1′,1′-dioxido-7′-(2-(pyrrolidin-1-yl)ethoxy)spiro[cyclopropane-1,4′-pyrido[2,3-b][1,4,5]oxathiazepin]-2′(3′H)-yl)methyl)pyridin-2-yl)propanoic Acid]	40.2 nM
< 1 nM	Cc1cnc([C@@H](c2ccn3c(C(F)F)nnc3c2C)C(C)(C)C(=O)O)cc1CN1CC2(CC2)Oc2nc(OCCN3CCCCC3)c(C)cc2S1(=O)=O (single isomer, unassigned) [Example 638, (*S)-3-(3-(Difluoromethyl)-8-methyl-[1,2,4]triazolo[4,3-a]pyridin-7-yl)-2,2-dimethyl-3-(5-methyl-4-((8′-methyl-1′,1′-dioxido-7′-(2-(piperidin-1-yl)ethoxy)spiro[cyclopropane-1,4′-pyrido[2,3-b][1,4,5]oxathiazepin]-2′(3′H)-yl)methyl)pyridin-2-yl)propanoic Acid]	20.1 nM
< 1 nM	Cc1cnc([C@@H](c2ccn3c(C(F)F)nnc3c2C)C(C)(C)C(=O)O)cc1CN1CC2(CCOCC2)Oc2nc(OCCN3CCCC3)c(C)cc2S1(=O)=O (single isomer, unassigned) [Example 640, (*S)-3-(3-(Difluoromethyl)-8-methyl-[1,2,4]triazolo[4,3-a]pyridin-7-yl)-2,2-dimethyl-3-(5-methyl-4-((8′-methyl-1′,1′-dioxido-7′-(2-(pyrrolidin-1-yl)ethoxy)-2,3,5,6-tetrahydrospiro[pyran-4,4′-pyrido[2,3-b][1,4,5]oxathiazepin]-2′(3′H)-yl)methyl)pyridin-2-yl)propanoic Acid]	73.9 nM
< 1 nM	Cc1cnc([C@@H](c2ccn3c(C(F)F)nnc3c2C)C(C)(C)C(=O)O)cc1CN1CC2(CCOCC2)Oc2nc(OCCN3CCCCC3)c(C)cc2S1(=O)=O (single isomer, unassigned) [Example 642, (*S)-3-(3-(Difluoromethyl)-8-methyl-[1,2,4]triazolo[4,3-a]pyridin-7-yl)-2,2-dimethyl-3-(5-methyl-4-((8′-methyl-1′,1′-dioxido-7′-(2-(piperidin-1-yl)ethoxy)-2,3,5,6-tetrahydrospiro[pyran-4,4′-pyrido[2,3-b][1,4,5]oxathiazepin]-2′(3′H)-yl)methyl)pyridin-2-yl)propanoic Acid]	36.6 nM
< 1 nM	Cc1ccc([C@@H](c2ccn3c(C(F)F)nnc3c2C)C(C)(C)C(=O)O)nc1CN1CC2(CCOCC2)Oc2nc(OCCN3CCCC3)c(C)cc2S1(=O)=O (single isomer, unassigned) [Example 644, (*S)-3-(3-(Difluoromethyl)-8-methyl-[1,2,4]triazolo[4,3-a]pyridin-7-yl)-2,2-dimethyl-3-(5-methyl-6-((8′-methyl-1′,1′-dioxido-7′-(2-(pyrrolidin-1-yl)ethoxy)-2,3,5,6-tetrahydrospiro[pyran-4,4′-pyrido[2,3-b][1,4,5]oxathiazepin]-2′(3′H)-yl)methyl)pyridin-2-yl)propanoic Acid]	51.7 nM
< 1 nM	Cc1cnc2c(c1)S(=O)(=O)N(Cc1cc([C@H](c3ccc4c(nnn4C4CC4)c3C)C(C)(C)C(=O)O)ccc1C)CC1(CNC1)O2 (single isomer, unassigned) [Example 645, (*R)-3-(1-Cyclopropyl-4-methyl-1H-benzo[d][1,2,3]triazol-5-yl)-2,2-dimethyl-3-(4-methyl-3-((8′-methyl-1′,1′-dioxidospiro[azetidine-3,4′-pyrido[2,3-b][1,4,5]oxathiazepin]-2′(3′H)-yl)methyl)phenyl)propanoic Acid]	1.5 nM
< 1 nM	Cc1ccc([C@H](c2ccc3c(nnn3C3CC3)c2C)C(C)(C)C(=O)O)cc1CN1CC2(CCNCC2)Oc2ncccc2S1(=O)=O (single isomer, unassigned) [Example 647, (*R)-3-(1-Cyclopropyl-4-methyl-1H-benzo[d][1,2,3]triazol-5-yl)-3-(3-((1′,1′-dioxidospiro[piperidine-4,4′-pyrido[2,3-b][1,4,5]oxathiazepin]-2′(3′H)-yl)methyl)-4-methylphenyl)-2,2-dimethylpropanoic Acid]	11.6 nM
